Experimental data from US11225481B2 (Centre national de la recherche scientifique, priority 2015, dated 2022).
Several values for one entry are separate records, joined by “and”; a condition that tells them apart may be missing. Equal values may be shown once. Read-outs that look alike come from different tables or passages of the source.

Key:
BRD4(BD1) [1] = molecular target: T1, BRD4(BD1) (Homo sapiens, UniProt O60885); test: HTRF assay, disruption of bromodomain/histone peptide interaction; assay type: binding; conditions: for LE (Ligand Efficiency): LE = 1.4(−log(IC50)/N), BRD4(BD1)
T1 construct: a BRD4(BD1) synthetic gene that includes a TEV cleavage site was purchased from LifeTechnology; made in house
Procedure: (§1) HTRF assays were performed in white 384 Well Small Volume™ HiBase Polystyrene Microplates (Greiner) with a total working volume of 20 μL. Compounds were dispensed, with 200 nL per well (1% final DMSO), from a concentration stock of 1 mM in 100% DMSO and with serial DMSO dilutions, using a Mosquito Crystal pipetting robot platform (TTP labtech). The IC50 measurements were performed in triplicates (Table 2 and 3). All HTRF reagents were purchased from CisBio Bioassays and reconstituted according to the supplier protocols. For each assay 14.7 μL of mix 1 (protein+peptide) is added in the assay wells, containing previously dispensed inhibitors, according to the final concentration and buffer described in Table 4, using a Biomek NX MC pipetting robot (Beckman). Then, 5.1 μL of mix 2 (donnor+acceptor) is added. HTRF signals were measured, after a final incubation (overnight at room temperature), using a PHERAstar FS (BMG Labtech) with an excitation filter at 337 nm and fluorescence wavelength measurement at 620 and 665 nm, an integration delay of 60 μs and an integration time of 500 μs. Results were analyzed with a two-wavelengths signal ratio: [intensity (665 nm)/intensity (620 nm)]*10^4. Percentage of inhibition was calculated using the following equation: % inhibition=[(compound signal)−(min signal)]/[(max signal)−(min signal)]*100, where ‘max signal’ is the signal ratio with the compound vehicle alone (DMSO) and ‘min signal’ the signal ratio without peptide.
(§2) For Isothermal Titration Calorimetry (ITC) and crystallogenesis, BRD4(BD1) was produced and purified using a histidine tag affinity chromatography as described by Filipakopoulos et al.9 For these experiments, a pNIC28-BSA4 expression vector containing BRD4(BD1) and a Tobacco Etch Virus (TEV) protease cleavage site have kindly been provided by Stefan Knapp laboratory from the SGC at the University of Oxford. After size exclusion chromatography, the fractions presenting pure BRD4(BD1) after TEV cleavage of the histidine tag were pooled and concentrated to 25 mg/mL for crystallogenesis. For ITC assays, the protein was concentrated up to at 6 mg/mL and the DTT was removed using a buffer exchange column (PD10 from GE healthcare) equilibrated with 10 mM HEPES pH=7.5, 150 mM NaCl. For Homogeneous Time Resolved Fluorimetry (HTRF) experiments, a BRD4(BD1) synthetic gene that includes a TEV cleavage site was purchased from LifeTechnology in a pDONR transport vector before cloning into a pDESTTM15 expression vector for GST affinity purification. Protein production and purification was carried out using similar protocols and buffers as used for the His-BRD4(BD1) system. Purification was carried on GST affinity resin (Thermo Scientific) and reduced glutathione was used for protein release. GST-BRD4(BD1) was further purified by size exclusion chromatography on a Superdex 16/60 Hiload column (GE Healthcare) using 20 mM TRIS pH=8.0, 150 mM NaCl Buffer.

BRD3(BD1) = molecular target: T2, BRD3(BD1) (Homo sapiens, UniProt Q15059); test: HTRF bromodomain selectivity profile; assay type: binding; conditions: Table 3 selectivity profile
T2 construct: purchased BPS Bioscience
Procedure: as §1, with “Compounds” for “HTRF assays were performed in white 384 Well Small Volume™ HiBase Polystyrene Microplates (Greiner) with a total working volume of 20 μL. Compounds”, “The IC50 measurements were performed in triplicates (Table 2 and 3).” left out, “[intensity (665 nm)/intensity (620 nm)]*10^4.” left out, “peptide. For IC50 measurements, values were normalized and fitted with Prism (GraphPad software) using the following equation: […] Selectivity profiles of bromodomain inhibitors were performed as described in HTRF screen section. […] HTRF detection reagents (EPIgeneous™ Binding Domain kits) were purchased from Cisbio Bioassays and used according to supplier's protocol. GST tagged bromodomain proteins were purchased from BPS Bioscience and histone peptide from Anaspec. [table]” for “peptide.”

BRD3(BD2) = molecular target: T3, BRD3(BD2) (Homo sapiens, UniProt Q15059); test: HTRF bromodomain selectivity profile; assay type: binding; conditions: Table 3 selectivity profile
T3 construct: purchased BPS Bioscience
Procedure: as §1, with “Compounds” for “HTRF assays were performed in white 384 Well Small Volume™ HiBase Polystyrene Microplates (Greiner) with a total working volume of 20 μL. Compounds”, “The IC50 measurements were performed in triplicates (Table 2 and 3).” left out, “[intensity (665 nm)/intensity (620 nm)]*10^4.” left out, “peptide. For IC50 measurements, values were normalized and fitted with Prism (GraphPad software) using the following equation: […] Selectivity profiles of bromodomain inhibitors were performed as described in HTRF screen section. […] HTRF detection reagents (EPIgeneous™ Binding Domain kits) were purchased from Cisbio Bioassays and used according to supplier's protocol. GST tagged bromodomain proteins were purchased from BPS Bioscience and histone peptide from Anaspec. [table]” for “peptide.”

BRD2(BD1) = molecular target: T4, BRD2(BD1) (Homo sapiens, UniProt P25440); test: HTRF bromodomain selectivity profile; assay type: binding; conditions: Table 3 selectivity profile
T4 construct: purchased BPS Bioscience
Procedure: as §1
(§3) Selectivity profiles of bromodomain inhibitors were performed as described in HTRF screen section. […] HTRF detection reagents (EPIgeneous™ Binding Domain kits) were purchased from Cisbio Bioassays and used according to supplier's protocol. GST tagged bromodomain proteins were purchased from BPS Bioscience and histone peptide from Anaspec.

BRD2(BD2) = molecular target: T5, BRD2(BD2) (Homo sapiens, UniProt P25440); test: HTRF bromodomain selectivity profile; assay type: binding; conditions: Table 3 selectivity profile
T5 construct: purchased BPS Bioscience
Procedure: as §1, §3

BRD4(BD2) = molecular target: T6, BRD4(BD2) (Homo sapiens, UniProt O60885); test: HTRF bromodomain selectivity profile; assay type: binding; conditions: Table 3 selectivity profile
T6 construct: purchased BPS Bioscience
Procedure: as §1, §3

BRDT(BD1) = molecular target: T7, BRDT(BD1) (Homo sapiens, UniProt Q58F21); test: HTRF bromodomain selectivity profile; assay type: binding; conditions: Table 3 selectivity profile
T7 construct: purchased BPS Bioscience
Procedure: as §1, §3

ATAD2 = molecular target: T8, ATAD2 (Homo sapiens, UniProt Q6PL18); test: HTRF bromodomain selectivity profile, non-BET control; assay type: binding; conditions: non-BET family member bromodomain control
T8 construct: GST tagged bromodomain proteins were purchased from BPS Bioscience; purchased BPS Bioscience
T8 sequence (Q6PL18 980-1092 limits assumed): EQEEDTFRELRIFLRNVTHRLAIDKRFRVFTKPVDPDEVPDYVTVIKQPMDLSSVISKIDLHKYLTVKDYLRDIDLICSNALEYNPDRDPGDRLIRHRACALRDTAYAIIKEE
Procedure: as §1, §3

BET bromodomains = test: Selectivity profile across BET bromodomains (HTRF); assay type: binding; conditions: in words
Procedure: as §3

BRD4(BD1) [2] = molecular target: T1, BRD4(BD1); test: Isothermal Titration Calorimetry; assay type: binding
Text: as §2
ITC was used to evaluate the thermodynamics parameters of the binding between BRD4(BD1) and the selected compounds, using ITC conditions previously described by Filippakopoulos et al.8 Purified BRD4(BD1) was extensively dialyzed in the ITC buffer containing 10 mM Hepes pH=7.5 and 150 mM NaCl. Compounds were diluted directly in the last protein dialysate prior to experiments. Titrations were carried out on a MicroCal ITC200 microcalorimeter (GE Healthcare, Piscataway, N.J.). Each experiment was designed using a titrant concentration (protein in the syringe) set 10 to 15 times the analyte concentration (compound in the cell generally between 10 and 35 μM) and using 13 injections at 35° C. A first small injection (generally 0.2 μL) was included in the titration protocol in order to remove air bubbles trapped in the syringe prior titration. Raw data were scaled after setting the zero to the titration saturation heat value. Integrated raw ITC data were fitted to a one site non-linear least squares fit model using the MicroCal Origin plugin as implemented in Origin 7 (Origin Lab). Finally, ΔG and TΔS values were calculated from the fitted ΔH and KA values using the equations ΔG=−R.T. ln KA and ΔG=ΔH−TΔS.

acute leukemia = conditions: patients, phase I acute leukemia study; cited from earlier work
[3] = test system: BD2 domain of BRD2 and BRD3; conditions: cited from earlier work
[4] = HTRF, mean ± SD of three experiments, Table 2, read-out: IC50 μM, effect on BRD4(BD1) activity
[5] = HTRF, Table 1′, TABLE 2, read-out: BRD4(BD1) IC50
[6] = Table 3 selectivity profile, mean ± SD of three experiments, read-out: IC50 (μM) BRD4(BD1)

T2 sequence (Q15059 34-140 limits assumed): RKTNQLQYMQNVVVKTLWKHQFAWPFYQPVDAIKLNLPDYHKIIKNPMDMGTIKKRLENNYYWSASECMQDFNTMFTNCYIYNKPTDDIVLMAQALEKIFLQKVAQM
T4 sequence (P25440 74-180 limits assumed): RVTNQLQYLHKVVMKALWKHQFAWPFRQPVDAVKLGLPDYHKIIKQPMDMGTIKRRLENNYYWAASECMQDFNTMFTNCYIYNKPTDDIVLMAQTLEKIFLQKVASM
T5 sequence (P25440 344-453 limits assumed): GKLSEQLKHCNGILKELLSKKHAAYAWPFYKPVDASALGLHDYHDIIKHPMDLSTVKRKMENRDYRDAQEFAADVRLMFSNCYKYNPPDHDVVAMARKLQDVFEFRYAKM
T3 sequence (Q15059 306-415 limits assumed): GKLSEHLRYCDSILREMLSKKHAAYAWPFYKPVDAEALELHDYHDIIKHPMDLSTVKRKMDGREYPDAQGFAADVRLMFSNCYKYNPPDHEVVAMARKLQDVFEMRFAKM

Structure (SMILES) | IC50 (BRD4(BD1) [1]; [4]) | IC50 (BRD3(BD1)) | IC50 (BRD3(BD2)) | IC50 (BRD2(BD1)) | IC50 (BRD2(BD2)) | IC50 (BRD4(BD2)) | IC50 (BRDT(BD1)) | IC50 (BRD4(BD1) [1]; [5]) | LE (Ligand Efficiency) (BRD4(BD1) [1]) | IC50 (BRD4(BD1) [1]; [6]) | IC50 (ATAD2) | selectivity profile among BET bromodomains (BET bromodomains) | fold increased potency (7a vs 6a) (BRD4(BD1) [1]; HTRF IC50 BRD4(BD1)) | enthalpy change (BRD4(BD1) [2]; ITC, BRD4(BD1)) | Kd (BRD4(BD1) [2]; Isothermal Titration Calorimetry) | fold decrease in potency as compared to 7a (BRD4(BD1) [1]; HTRF IC50 BRD4(BD1)) | clinical response (acute leukemia) | bromodomain binding preference [3]
Cn1cnc2c1c(=O)[nH]c(=O)n2Cc1ccc(Cl)cc1 [Compound 4b] | 9 µM | 14 µM | 4 µM | > 100 µM | 7 µM | 5 µM | 27 µM | – | – | – | – | – | – | – | – | – | – | –
CCCCn1c(=O)[nH]c(=O)c2c1ncn2CC [Compound 6a, 3-Butyl-7-ethylxanthine] | 13 µM | 4.8 ± 0.3 µM | 5.8 ± 0.2 µM | 18.8 ± 0.7 µM | 6.6 ± 0.3 µM | 8.1 ± 0.3 µM | 7.9 ± 0.4 µM | 13 ± 0.3 µM | 0.40 | 13 ± 0.3 µM | > 100 µM | pan-BET inhibition profile | – | – | – | – | – | –
CCn1cnc2c1c(=O)[nH]c(=O)n2Cc1ccc(Cl)cc1 [Compound 7a] | 2.6 µM | 1.8 ± 1.1 µM | 1.8 ± 0.2 µM | 4.7 ± 0.1 µM | 1.6 ± 0.2 µM | 1.9 ± 0.1 µM | 2.3 ± 0.2 µM | 2.6 µM | 0.37 | 2.6 ± 0.1 µM | > 100 µM | pan-BET inhibition profile | 2 fold | -6.3 kcal/mol | 1800 nM | – | – | –
CCn1c(CSc2n[nH]c(N)n2)nc2c1c(=O)[nH]c(=O)n2Cc1ccc(Cl)cc1 [Compound 22a, 8-(5-Amino-1H-[1,2,4]triazol-3-ylsulfanylmethyl)-3-(4-chlorobenzyl)-7-ethyl-3,7-dihydro-purine-2,6-dione] | 26.4 µM | 31.7 ± 1.1 µM | – | 30 ± 0.9 µM | – | – | – | 26.4 µM | 0.17 | 26.4 ± 0.7 µM | – | shift of selectivity towards BET-BD1 domains | – | – | – | 10 fold | – | –
CCn1c(CSc2nc3nc(C)cc(C)n3n2)nc2c1c(=O)[nH]c(=O)n2Cc1ccc(Cl)cc1 [Compound 25a] | 12.6 µM | 40.7 ± 2.2 µM | 23.9 ± 1.4 µM | 30.1 ± 1.3 µM | > 100 µM | > 100 µM | 65.3 ± 8.1 µM | – | – | – | > 100 µM | – | – | – | – | – | – | –
CCc1cc(CC)n2nc(SCc3nc4c(c(=O)[nH]c(=O)n4Cc4ccc(Cl)cc4)n3CC)nc2n1 [Compound 26a] | 7.9 µM | 43.5 ± 7.1 µM | 2.1 ± 0.5 µM | 31.9 ± 0.5 µM | 9.5 ± 0.5 µM | > 100 µM | 42.5 ± 3.9 µM | – | – | – | 56.4 ± 7.9 µM | – | – | – | – | – | – | –
CCCCc1c(C)nc2nc(SCc3nc4c(c(=O)[nH]c(=O)n4Cc4ccc(Cl)cc4)n3CC)nn2c1C [Compound 27b, 8-(6-Butyl-5,7-dimethyl-[1,2,4]triazolo[1,5-a]pyrimidin-2-ylsulfanylmethyl)-3-(4-chlorobenzyl)-7-ethyl-3,7-dihydro-purine-2,6-dione] | 20.4 µM | – | – | – | – | – | – | 20 µM and 20.4 µM | 0.15 | 20.4 ± 3.6 µM | – | selective towards BRD4(BD1) | – | – | – | – | – | –
Cc1sc2c(c1C)C(c1ccc(Cl)cc1)=N[C@@H](CC(=O)Nc1ccc(O)cc1)c1nnc(C)n1-2 [OTX015, (6S)-4-(4-chlorophenyl)-N-(4-hydroxyphenyl)-2,3,9-trimethyl-6H-thieno[3,2-f][1,2,4]triazolo[4,3-a][1,4]diazepine-6-acetamide] | – | – | – | – | – | – | – | – | – | – | – | – | – | – | – | – | induced remissions, including complete remission in two patients with refractory disease | –
COc1cc(OC)c2c(=O)[nH]c(-c3cc(C)c(OCCO)c(C)c3)nc2c1 [RVX-208, 2-[4-(2-hydroxyethoxy)-3,5-dimethylphenyl]-5,7-dimethoxy-4(3H)-quinazolinone] | – | – | – | – | – | – | – | – | – | – | – | – | – | – | – | – | – | binds preferentially to the BD2 domain of BRD2 and BRD3
